Some results are limits rather than exact numbers.

One may read the IC50 as the concentration that gives 50% inhibition.

The assay relates to HeLa cells. In words: Assay 1 cell proliferation measurement (CTG, 72 h), HeLa. The class given is cell-based, human. The settings on record: Homo sapiens, HeLa; Assay 1, 72 h, Cell Titer Glo; read-out: HeLa IC50 [nM] (Cervical cancer). How it is done:
Cell Proliferation Measurement
The antiproliferative activity of the compounds of the general formula (I) was examined in vitro in human cancer cells. For this purpose, the appropriate number of cells (Hela: 800; SK-MEL-3: 1000; A549: 800) were plated in 384-well plates with appropriate growth medium ((A549: DMEM/Ham's F12 (Biochrom; #FG 4815 with stabile Glutamine), FCS 10% final (Biochrom; #S 0415); Hela: DMEM/Ham's F12 (Biochrom; #FG 4815 with stabile Glutamine), FCS 10% final (Biochrom; #S 0415); SK-MEL-3: McCoy's 5A (Biochrom; #F 1015), FCS 10% final (Biochrom; #S 0415), L-Alanyl-L-Glutamine final: 2 mM, (Biochrom; #K 0302)) and incubated at 37° C. overnight. After 24 h, cells on one plate (0 h plate) were treated with 30 μl/cavity of CTG solution (Promega Cell Titer Glo (catalogue #G755B and G756B)) and incubated at room temperature for 10 min, and luminescence was measured by means of a VICTOR V (Perkin Elmer), in order to determine cell viability on commencement of treatment. The cells on the test plate were treated with the compounds of the general formula (I) as and incubated at 37° C. for 72 h. The compounds were added to the cells by means of an HP D300 digital dispenser in a 10-step 2.5-fold dilution series generally starting at a maximum final drug concentration of 100 nM. As control, the cells were treated with vehicle (DMSO at 0.3% final concentration). After 72 h, the cells were treated with 30 μl/cavity of CTG solution (Promega Cell Titer Glo (catalogue #G755B and G756B)) and incubated at room temperature for 10 min. and luminescence was measured by means of a VICTOR V (Perkin Elmer), in order to determine cell viability at the end of treatment. The percentage effect on cell growth and the IC50 derived therefrom were determined for each test substance using the values from the 0 h plate […] and the DMSO control […]. The IC50 values were calculated using a 4-parameter fit.
A general note: In ATP-based viability assays light output follows the ATP content of the culture.
Consider `O=C1NN=C(c2ccc(NCCCn3cnnc3)c(C(F)(F)F)c2)CO1` [Example 312, 5-[4-{[3-(4H-1,2,4-triazol-4-yl)propyl]amino}-3-(trifluoromethyl)phenyl]-3,6-dihydro-2H-1,3,4-oxadiazin-2-one], for which the IC50 was > 100 nM.
Then `CN(c1ccc(C2=NNC(=O)OC2)cc1C(F)(F)F)C1CCC(O)CC1` (centres unmarked) [Example 289, 5-{4-[(4-hydroxycyclohexyl)(methyl)amino]-3-(trifluoromethyl)phenyl}-3,6-dihydro-2H-1,3,4-oxadiazin-2-one], with 26 nM.
Take `O=C1CCC(CNc2ccc(C3=NNC(=O)OC3)cc2C(F)(F)F)N1` (centres unmarked) [Example 290, 5-[4-{[(5-oxopyrrolidin-2-yl)methyl]amino}-3-(trifluoromethyl)phenyl]-3,6-dihydro-2H-1,3,4-oxadiazin-2-one]: the IC50 amounted to 32 nM.
Then `O=C1NN=C(c2ccc(NCc3cccnc3)c(C(F)(F)F)c2)CO1` [Example 288, 5-[4-{[(pyridin-3-yl)methyl]amino}-3-(trifluoromethyl)phenyl]-3,6-dihydro-2H-1,3,4-oxadiazin-2-one], with 26 nM; and `CN1CCCC(Nc2ccc(C3=NNC(=O)OC3)cc2C(F)(F)F)CC1` (centres unmarked) [Example 301, 5-{4-[(1-methylazepan-4-yl)amino]-3-(trifluoromethyl)phenyl}-3,6-dihydro-2H-1,3,4-oxadiazin-2-one], with > 100 nM.
As for `Cn1cc(CNc2ccc(C3=NNC(=O)OC3)cc2C(F)(F)F)cn1` [Example 300, 5-[4-{[(1-methyl-1H-pyrazol-4-yl)methyl]amino}-3-(trifluoromethyl)phenyl]-3,6-dihydro-2H-1,3,4-oxadiazin-2-one], the figure is 90 nM; as for `CCCC(CO)Nc1ccc(C2=NNC(=O)OC2)cc1C(F)(F)F` (centres unmarked) [Example 285, 5-{4-[(1-hydroxypentan-2-yl)amino]-3-(trifluoromethyl)phenyl}-3,6-dihydro-2H-1,3,4-oxadiazin-2-one], 14 nM; as for `CCNC(=O)CNc1ccc(C2=NNC(=O)OC2)cc1C(F)(F)F` [Example 306, ethyl-N^2-[4-(2-oxo-3,6-dihydro-2H-1,3,4-oxadiazin-5-yl)-2-(trifluoromethyl)phenyl]glycinamide], > 100 nM.
For `O=C1NN=C(c2ccc(NCCN3CCCCC3)c(C(F)(F)F)c2)CO1` [Example 317, 5-[4-{[2-(piperidin-1-yl)ethyl]amino}-3-(trifluoromethyl)phenyl]-3,6-dihydro-2H-1,3,4-oxadiazin-2-one], the IC50 was > 100 nM.
As for `CC1CC(Nc2ccc(C3=NNC(=O)OC3)cc2C(F)(F)F)CCN1` (centres unmarked) [Example 311, 5-{4-[(2-methylpiperidin-4-yl)amino]-3-(trifluoromethyl)phenyl}-3,6-dihydro-2H-1,3,4-oxadiazin-2-one], the IC50 is > 100 nM.
`CN(C)C(=O)CNc1ccc(C2=NNC(=O)OC2)cc1C(F)(F)F` [Example 307, N,N-dimethyl-N^2-[4-(2-oxo-3,6-dihydro-2H-1,3,4-oxadiazin-5-yl)-2-(trifluoromethyl)phenyl]glycinamide]: the IC50 was > 100 nM.
`CN1CC(CNc2ccc(C3=NNC(=O)OC3)cc2C(F)(F)F)CC1=O` (centres unmarked) [Example 305, 5-[4-{[(1-methyl-5-oxopyrrolidin-3-yl)methyl]amino}-3-(trifluoromethyl)phenyl]-3,6-dihydro-2H-1,3,4-oxadiazin-2-one]: the IC50 was > 100 nM.
Consider `O=C1NN=C(c2ccc(NC(C3CC3)C3CC3)c(C(F)(F)F)c2)CO1` [Example 296, 5-{4-[(dicyclopropylmethyl)amino]-3-(trifluoromethyl)phenyl}-3,6-dihydro-2H-1,3,4-oxadiazin-2-one], for which the IC50 stood at 59 nM.
Regarding `O=C1NN=C(c2ccc(NCCn3ccnn3)c(C(F)(F)F)c2)CO1` [Example 297, 5-[4-{[2-(1H-1,2,3-triazol-1-yl)ethyl]amino}-3-(trifluoromethyl)phenyl]-3,6-dihydro-2H-1,3,4-oxadiazin-2-one], the IC50 was 59 nM.
Take `CC(C)C[C@H](CO)Nc1ccc(C2=NNC(=O)OC2)cc1C(F)(F)F` [Example 293, 5-[4-{[(2R)-1-hydroxy-4-methylpentan-2-yl]amino}-3-(trifluoromethyl)phenyl]-3,6-dihydro-2H-1,3,4-oxadiazin-2-one]: the IC50 was determined as 43 nM.
As to `Cn1ccnc1CNc1ccc(C2=NNC(=O)OC2)cc1C(F)(F)F` [Example 295, 5-[4-{[(1-methyl-1H-imidazol-2-yl)methyl]amino}-3-(trifluoromethyl)phenyl]-3,6-dihydro-2H-1,3,4-oxadiazin-2-one], the IC50 was 47 nM.
Regarding `CN1CCCC1CCNc1ccc(C2=NNC(=O)OC2)cc1C(F)(F)F` (centres unmarked) [Example 318, 5-[4-{[2-(1-methylpyrrolidin-2-yl)ethyl]amino}-3-(trifluoromethyl)phenyl]-3,6-dihydro-2H-1,3,4-oxadiazin-2-one], the IC50 was > 100 nM.
For the molecule `CC(=O)NCCNc1ccc(C2=NNC(=O)OC2)cc1C(F)(F)F` [Example 316, N-{2-[4-(2-oxo-3,6-dihydro-2H-1,3,4-oxadiazin-5-yl)-2-(trifluoromethyl)anilino]ethyl}acetamide], the IC50 was > 100 nM.
Then `O=C1NN=C(c2ccc(NCc3cncnc3)c(C(F)(F)F)c2)CO1` [Example 299, 5-[4-{[(pyrimidin-5-yl)methyl]amino}-3-(trifluoromethyl)phenyl]-3,6-dihydro-2H-1,3,4-oxadiazin-2-one], with 69 nM; and `CN1CCC(Nc2ccc(C3=NNC(=O)OC3)cc2C(F)(F)F)CC1` [Example 309, 5-{4-[(1-methylpiperidin-4-yl)amino]-3-(trifluoromethyl)phenyl}-3,6-dihydro-2H-1,3,4-oxadiazin-2-one], with > 100 nM.
Then `O=C1NN=C(c2ccc(N3CCC4(CCOC4)C3)c(C(F)(F)F)c2)CO1` (centres unmarked) [Example 284, 5-[4-(2-oxa-7-azaspiro[4.4]nonan-7-yl)-3-(trifluoromethyl)phenyl]-3,6-dihydro-2H-1,3,4-oxadiazin-2-one], with 14 nM.
Take `CCN1CCCC1CNc1ccc(C2=NNC(=O)OC2)cc1C(F)(F)F` (centres unmarked) [Example 315, 5-[4-{[(1-ethylpyrrolidin-2-yl)methyl]amino}-3-(trifluoromethyl)phenyl]-3,6-dihydro-2H-1,3,4-oxadiazin-2-one]: the IC50 was > 100 nM.
For `CC1(CNc2ccc(C3=NNC(=O)OC3)cc2C(F)(F)F)CCOCC1` [Example 298, 5-[4-{[(4-methyloxan-4-yl)methyl]amino}-3-(trifluoromethyl)phenyl]-3,6-dihydro-2H-1,3,4-oxadiazin-2-one], the IC50 is 62 nM.
As to `O=C1NN=C(c2ccc(NCCCn3ccnc3)c(C(F)(F)F)c2)CO1` [Example 282, 5-[4-{[3-(1H-imidazol-1-yl)propyl]amino}-3-(trifluoromethyl)phenyl]-3,6-dihydro-2H-1,3,4-oxadiazin-2-one], the IC50 was determined as 13 nM.
`CN(CC(C)(C)O)c1ccc(C2=NNC(=O)OC2)cc1C(F)(F)F` [Example 283, 5-{4-[(2-hydroxy-2-methylpropyl)(methyl)amino]-3-(trifluoromethyl)phenyl}-3,6-dihydro-2H-1,3,4-oxadiazin-2-one]: the IC50 was found to be 13 nM.
With `O=C1NN=C(c2ccc(NCCN3CCNC3=O)c(C(F)(F)F)c2)CO1` [Example 313, 5-[4-{[2-(2-oxoimidazolidin-1-yl)ethyl]amino}-3-(trifluoromethyl)phenyl]-3,6-dihydro-2H-1,3,4-oxadiazin-2-one], the IC50 was > 100 nM.

The record behind these values is patent US11427553B2, “Dihydrooxadiazinones” (Bayer Aktiengesellschaft, priority 2017, dated 2022).
